Measured values published in patent US6180156A, “Acid salts of N-[N-(3,3-dimethylbutyl)-L-α-aspartyl]-L-phenylalanine 1-methyl ester” (The NutraSweet Company, priority 1998, dated 2001).
Counter-ions that a name gives are not always drawn. Like-named read-outs stand apart in the source and are kept apart here. Residues, ends and D or L forms follow the SMILES beside them.

Key:
[1] = Dissolution in water (time to complete dissolution); assay type: physicochemical
Procedure: N-[N-(3,3-dimethylbutyl)-L-α-aspartyl]-L-phenylalanine 1-methyl ester (25.0 g) was slurried in 150 ml of water. To the stirred slurry was slowly added concentrated hydrochloric acid (5.5 ml, 0.0661 mol). After approximately 10 minutes all the solid had dissolved. The clear solution was then freeze dried. […] Yield: 27.34 g white solid (99.7%). The hydrochloride salt (1 g) dissolved in water (100 ml) in 70 seconds. 1H NMR (CD3 CN) δ 0.89 (s, 9H), 1.64 (m, 2H), 3.01 (m, 6H), 3.68 (s, 3H), 4.16 (t, 1H), 4.67 (m, 1H), 7.26 (m, 5H), 8.27 (d, 1H). Anal. Calcd for C20 H31 ClN2 O5.H2 O: C, 55.48; H, 7.69; N, 6.47; Cl, 8.19. Found: C, 55.95; H, 7.59; N, 6.55; Cl, 8.35.
N-[N-(3,3-dimethylbutyl)-L-α-aspartyl]-L-phenylalanine 1-methyl ester (10.0 g) was slurried in 100 ml of water. An equimolar amount of 85% phosphoric acid solution was added. After all the solid dissolved, the solution was freeze dried. […] Yield 12.33 g white solid (98.0%). The phosphate salt (0.1 g) dissolved in water (100 ml) in less than 30 seconds (visual observation) and about 90 seconds by spectrophotometric analysis. 1H NMR (CD3 CN) δ 0.89 (s, 9H), 1.55 (m, 2H), 2.84 (m, 5H), 3.19 (m, 1H), 3.67 (s, 3H), 4.06 (t, 1H), 4.70 (m, 1H), 7.27 (m, 5H), 8.03 (d, 1H). Anal. Calcd for C20 H33 N2 O9 P.H2 O: C, 48.58; H, 7.15; N, 5.67; P, 6.26. Found: C, 48.15: H, 7.08; N, 5.60; P, 6.57.
N-[N-(3,3-dimethylbutyl)-L-α-aspartyl]-L-phenylalanine 1-methyl ester (25.0 g) was slurried in 100 ml of water and concentrated sulfuric acid (3.67 ml) was added slowly. After several minutes of stirring some material remained undissolved. Therefore, 75 ml of acetone was added. The resulting clear solution was stirred for 30 minutes, then the acetone was removed under reduced pressure on a rotary evaporator. The contents of the flask remained a clear solution. […] Yield: 30.04 g (95%). The sulfate salt (0.1 g) dissolved in water (100 ml) in less than 20 seconds (visual observation). 1H NMR (CD3 CN) δ 0.89 (s,9H), 1.57 (m, 2H), 2.91 (m, 5H), 3.20 (m, 1H), 3.68 (s, 3H), 4.15 (t, 1H), 4.72 (m, 1H), 7.27 (m, 5H), 7.68 (d, 1H). Anal. Calcd for C20 H32 N2 O9 S.H2 O: C, 48.56; H, 6.94; N, 5.66; S, 6.48. Found C, 48.93; H, 7.02; N, 5.78; S, 6.50.
N-[N-(3,3-dimethylbutyl)-L-α-aspartyl]-L-phenylalanine 1-methyl ester (5.00 g) was dissolved in 75 ml of acetone. Citric acid (2.53 g) was dissolved in 50 ml of water, and the acetone solution was added. This formed a clear, colorless solution that was stirred for 1 hour. The acetone was evaporated under reduced pressure. The resulting slurry was freeze dried to obtain 7.5 g of a white solid. The citrate salt (0.1 g) dissolved in water (100 ml) in 90 seconds (visual observation). δ (CD3 CN) 0.89 (s, 9H), 1.53 (m, 2H), 2.83 (m, 10H), 3.20 (m, 1H), 3.67 (s, 3H), 4.04 (t, 1H), 4.21 (m, 1H), 7.27 (m, 5H), 7.79 (d, 1H). Anal. Calcd for C26 H38 N2 O12.H2 O: C, 53.05; H, 6.86; N, 4.76. Found: C, 53.10; H, 6.88; N, 4.41.
N-[N-(3,3-dimethylbutyl) -L-α-aspartyl]-L-phenylalanine 1-methyl ester (0.05-0.1 g) was dissolved in water (100 mL). The compound completely dissolved in 5-7 minutes (visual observation). The dissolution of 1.0 g of N-[N-(3,3-dimethylbutyl)-L-α-aspartyl]-L-phenylalanine 1-methyl ester in 100 mL of water required approximately 45 minutes.

[2] = Aqueous solubility compared to the starting material / water solubility; assay type: physicochemical; details: starting material = neotame
[3] = amino group (primary in aspartame, secondary in neotame); cited from earlier work
[4] = cited from earlier work
[5] = on a weight basis, cited from earlier work
[6] = compared with aspartame; cited from earlier work
[7] = compared with aspartame, under some pH conditions; cited from earlier work
[8] = 0.1 g in water (100 ml), visual observation

COC(=O)[C@H](Cc1ccccc1)NC(=O)[C@H](CC(=O)O)NCCC(C)(C)C [hydrochloride salt, Hydrochloride Salt of N-[N-(3,3-dimethylbutyl)-L-α-aspartyl]-L-phenylalanine 1-methyl Ester]
dissolution time in water ([1]; 1 g in water (100 ml)): 70 s | aqueous solubility compared to the starting material [2]: greatly increased aqueous solubility compared to the starting material

COC(=O)[C@H](Cc1ccccc1)NC(=O)[C@@H](N)CC(=O)O [aspartame] (H-Asp-Phe-OMe)
pKa [3]: 7.7

COC(=O)[C@H](Cc1ccccc1)NC(=O)[C@H](CC(=O)O)NCCC(C)(C)C [N-[N-(3,3-dimethylbutyl)-L-α-aspartyl]-L-phenylalanine 1-methyl ester]
dissolution time in water, completely dissolved (visual observation) ([1]; 0.05-0.1 g in water (100 mL), visual observation): 5 to 7 min | dissolution time in water ([1]; 1.0 g in 100 mL of water): approximately 45 minutes | solubility in water ([4]; compared with aspartame): much lower solubility in water | solubility in water ([4]; in words, no comparator): sparingly soluble in water | pKa [3]: 8.1 | sweetening potency relative to aspartame ([5]; times that of aspartame): at least 50 times | sweetening potency relative to sucrose ([5]; times that of sucrose): about 10,000 times | solubility in organic solvents [6]: much higher solubility in organic solvents than aspartame | stability [7]: higher stability than aspartame under some pH conditions

COC(=O)[C@H](Cc1ccccc1)NC(=O)[C@H](CC(=O)O)NCCC(C)(C)C [phosphate salt, Phosphate Salt of N-[N-(3,3-dimethylbutyl)-L-α-aspartyl]-L-phenylalanine 1-methyl Ester]
dissolution time in water by spectrophotometric analysis ([1]; 0.1 g in water (100 ml), spectrophotometric analysis): about 90 seconds | dissolution time in water (visual observation) [1, 8]: less than 30 seconds | aqueous solubility compared to the starting material [2]: greatly increased aqueous solubility compared to the starting material

COC(=O)[C@H](Cc1ccccc1)NC(=O)[C@H](CC(=O)O)NCCC(C)(C)C [citrate salt, Citrate Salt of N-[N-(3,3-dimethylbutyl)-L-α-aspartyl]-L-phenylalanine 1-methyl Ester]
dissolution time in water (visual observation) [1, 8]: 90 s

COC(=O)[C@H](Cc1ccccc1)NC(=O)[C@H](CC(=O)O)NCCC(C)(C)C [sulfate salt, Sulfate Salt of N-[N-(3,3-dimethylbutyl)-L-α-aspartyl]-L-phenylalanine 1-methyl Ester]
dissolution time in water (visual observation) [1, 8]: less than 20 seconds | aqueous solubility compared to the starting material [2]: greater aqueous solubility compared to the starting material
